The values that follow come from patent publication US6583179B2, “Substituted aminoalkylamide derivatives as antagonists of follicle stimulating hormone” (Ortho-McNeil Pharmaceutical, Inc., priority 1999, dated 2003).

The term EC50 denotes the concentration at which the effect is half-maximal.

For test [1], the system named is mature cycling female Wistar rats. Description: Interruption of 4-day estrus cycle. Format: in vivo, rat. Conditions: 20 mg/kg BID oral through 2 estrus cycles; for Estradiol Concentration / Progesterone Concentration: blood on morning of estrus; for # Ovulated Eggs: eggs in the oviduct. The protocol: The estrus cycles of mature cycling female Wistar rats (250 g) were monitored for 2 consecutive estrus cycles to select animals with regular 4-day estrus cycles. The animals were randomly assigned to treatment groups on the morning of estrus. Starting on the morning of estrus and continuing through 2 estrus cycles, the animals orally dosed with vehicle or test compound at a concentration of 20 mg/kg; BID. At the end of the second estrus cycle, blood samples were collected by orbital puncture on the morning of estrus. The animals were then sacrificed, and the number of ovulated eggs in the oviduct were counted.

Test [2] concerns Rat Granulosa Cell. Description: Rat granulosa cell FSH-stimulated cAMP production. It counts as cell-based. Conditions: inhibition of cAMP produced by EC70 dose of FSH (1.4 nM), maximum concentration 50 μM. As to the method:
Insulin, diethylstilbesterol, androstenedione, forskolin and DMSO were purchased from Sigma (St. Louis, Mo.). Fungizone, penicillin/streptomycin, charcoal-treated heat inactivated fetal bovine serum (CT-HI-FBS) and Dulbecco's Modified Eagle Medium:Hams F12 medium containing 15 mM Hepes and L-glutamine (DMEM:F12), were purchased from GIBCO BRL (Grand Island, N.Y.).
Ovine FSH (NIADDK-oFSH-17; FSH potency=20 NIH-FSH-S1 U/mg; LH contamination=0.04 times NIH-LH-S1) was received from Ogden Bioservices Corporation, Rockville, Md. Human FSH (Fertinex), was purchased from Serono Pharmaceutical (Framingham, Mass.). Human chorionic gonadotropin (hCG) was purchased from Sigma (St Louis, Mo.).
Immature intact female rats (Wistar-derived strain; 21-23 days old) were implanted with a single pellet (Innovative Research of America, Sarasota, Fla.) containing 2.5 mg diethylstilbesterol (DES) for 3 days. On the third day, the animals were sacrificed, the ovaries were removed, and the granulosa cells were isolated essentially as described in Haynes-Johnson et al., Biol. Reprod., 61 (1), 147-153, (1999). Granulosa cells were plated at a density of 300,000 cells per ml with 0.2 ml added to each well of 96 well culture dishes (Corning, N.Y.). Cultures were incubated at 37° C. in a humidified incubator (95% air, 5% CO2) overnight (18 hours).
Androstenedione (100,000X) was prepared by dissolving the steroid in 100% ethanol, and was subsequently diluted to a final concentration of 10^−7M containing 0.1% ethanol in assay media. The assay media was serum-free, DES-free, insulin-free media, prepared by adding 5 mL pen-strep,1.5 mL fungizone and 5 μL androstenedione to 493.5 mL DMEM F-12 media.
Test compounds were solubilized in 30% dimethyl sulfoxide (DMSO) at a concentration of 10 mM before diluting to appropriate concentrations in assay medium. The final DMSO concentration in the treated cells and in the control cells was 0.75%.
Test plates containing the granulosa cells were preincubated for 18 hours at 37° C. with 95% air, 5% CO2, 100% humidity. The spent media was removed and 50 μl assay media (DMEM:F12) containing 2 mM IBMX (3-isobutyl-1-methyl-xanthine) was added to the cells. Compounds (25 μl) in the appropriate concentration were added followed 5 minutes later by an EC70 dose of FSH (25 μl; 50 ng/ml; 1.4 nM). After 30 minutes @ 22.5° C. (room temperature) the reaction was terminated by addition of 25 μL 0.5 N hydrochloric acid to each well. The amount of cAMP produced was measured by radioimmunoassay in a FlashPlate (DuPont, Boston, Mass.). To each flash plate 60 μL flash plate buffer was added followed by 40 μL acidified cell sample or cAMP standard, followed with the addition of 100 μl ^125l-cAMP trace. The FlashPlates were sealed, incubated overnight @ room temperature, and counted in a Packard TopCount (Packard Instrument Co., Meriden, Conn.). The cAMP radioimmunoassay results were calculated using DPM conversion and log-logit transformation of % binding (Excel program).

The subject of test [3] is immature male Wistar rats. Description: Effects on spermatogenesis in immature male rats. Conditions: 20 mg/kg BID for 25 days; for Serum Testosterone (t = 3 hr, d = 25): 3 hr after dosing; for Mating Sperm: animals with sperm / animals. Format: in vivo, rat. The protocol:
Twenty-one day old immature male Wistar rats (Charles River) were treated with FSH antagonist at a concentration of 20 mg/kg BID for 25 days. On the penultimate day of treatment, blood samples were collected by orbital puncture immediately prior to oral dosing, and 3 hours after dosing into Vacutainers containing EDTA. On the last day of treatment, blood samples were again collected prior to time of compound administration. The concentrations of LH, FSH and testosterone were measured in the plasma. Testosterone was measured using a Coat-A-Count kit (Diagnostic Products Corp.) and luteinizing hormone and follicle stimulating hormone concentrations were measured following previously established. At the end of the treatment period, the animals were sacrificed, testes and prostates were collected and weighed, and the testes were prepared for histological examination. The presence of sperm in testes were evaluated by hematoxylin and eosin staining, and in separate slides with a BERG stain (REF, 1963).

In the case of `Cc1ccccc1-c1ccc(S(=O)(=O)N(CC(=O)NCc2ccc(CN)cc2)C[C@@H](C)c2ccccc2)cc1` [Compound 215], in test [1], the “Estradiol Concentration” value is given as 22.2 ± 4.2, the “Progesterone Concentration” value is given as 2.6 ± 0.6 and the “# Ovulated Eggs” value is on record as 16.3. The compound also gave an EC50 in test [2] of 0.01 µM. Further, in test [3], the “Prostate Weight” value came to 1.8 ± 0.1; the “Testes Weight” value was 8.7 ± 0.5; the “Serum Testosterone (t = 3 hr, d = 25)” value worked out at 4.9 ± 0.7; the “Mating Sperm” value was 1/4.

Turning to `C[C@@H](CN(CC(=O)NCc1ccc(CN)cc1)S(=O)(=O)c1ccc(-c2ccccc2Cl)cc1)c1ccccc1` [Compound 198], in test [1], the “Estradiol Concentration” value is 20.1 ± 4.4, the “Progesterone Concentration” value is recorded as 3.6 ± 0.9 and the “# Ovulated Eggs” value is listed as 14.0. Also, the EC50 in test [2] worked out at 0.02 µM. Further, in test [3], the “Prostate Weight” value turned out to be 1.6 ± 0.2; the “Testes Weight” value is 8.8 ± 0.2; the “Serum Testosterone (t = 3 hr, d = 25)” value was 3.6 ± 0.6; the “Mating Sperm” value was 3/4.
